Results from US9023853B2, “Janus kinase 2 (JAK2) inhibitor for the treatment of lupus” (Cephalon, Inc., priority 2010, dated 2015).

Key:
Format in all cases: in vivo, mouse
[1] = test system: anti-Smith antigen antibodies; assay: Serum anti-Smith antigen ANA ELISA in NZM mice; details: p<0.05
From the text: The measurement of anti-dsDNA and anti-Smith antigen antibodies was done by an in-house generated custom ELISA assay. Chromatin coated plates were purchased from Inova Diagnostics, Inc. Purified bovine thymus dsDNA (Sigma, St. Louis, […].) or purified bovine Smith antigen (GenWay, San Diego, Calif.) were used as coating antigen for the detection of anti-dsDNA and anti-Smith Ag antibodies respectively. Coated plates were washed with Borate Sulfate Saline (BSS) and blocked with BSS containing 1% Bovine Serum Albumin (BSA) and 0.1% Tween-20 detergent. Standard curves were generated using mouse anti-chromatin antibody (Sigma, 2B1) or 25 week old MRL/lpr serum. Mouse anti-dsDNA antibody (Abcam, Cambridge, Mass.), or mouse anti-Smith antigen antibody (Abcam) were used as standards for each assay. […] Developed plates were read using a Victor-X4 spectrophotometer reading at […] with a reference wavelength of 570 nm. […]
Age mated, female, NZM or NZW/LacJ, mice were matured for the study of lupus nephritis for a total of 7 months or 210 days at which time urine was collected for proteinuria detection. Mice with 0.5-1.0 mg/ml of urine protein as determined by an optical density-based total protein precipitation assay and cross-checked for 30-300 mg/dl of protein as determined by a stick assay were considered proteinuria positive and selected for study entry. […]

[2] = test system: IFNα; assay: Serum IFNα at EOS in NZM mice; details: for serum IFNα decrease compared to vehicle: EOS
Method: (§1) Age mated, female, NZM or NZW/LacJ, mice were matured for the study of lupus nephritis for a total of 7 months or 210 days at which time urine was collected for proteinuria detection. Mice with 0.5-1.0 mg/ml of urine protein as determined by an optical density-based total protein precipitation assay and cross-checked for 30-300 mg/dl of protein as determined by a stick assay were considered proteinuria positive and selected for study entry. Groups were normalized to contain a Gaussian distribution of proteinuria positive animals (i.e., ⅓ low proteinuria, ⅓ medium, ⅓ high) then randomized between groups before ear marking and taking baseline measures including urine and serum collections. A total of five mice from the total population were randomly selected for baseline kidney histology evaluation. Treatments and tests for each group are as described in FIG. 12. Briefly, with a minimum of 10 mice per group, COMPOUND A was administered at 100 mg/kg or 55 mg/kg, both twice a day and orally. […] Vehicle included 3% DMSO, 10% Solutol and 87% PBS. […] End-stage lupus nephritis was evaluated by histopathology and scored by a board certified pathologist for the assessment of total renal damage in diseased animals using the scoring method described by Smith et al (Smith, Dong et al. 2007). […] Day-98 or “end of treatment/study” represents 310 days of age for the NZM animals.

[3] = test system: NZM mice; assay: Lung histopathology in NZM mice
Method: For histological analyses, the left kidney and lung (NZM model only) from each animal was removed and fixed in 10% buffered neutral 10% formalin (EMD) for 48 hours on an orbital rocker at 25° C., then washed overnight with running dH2O and stored in 70% ethanol at 4° C. until ready to be processed. Kidney stains used for histological analyses included hematoxylin and eosin (H&E), Periodic Acid Schiff (PAS) and Trichrome stains (Wistar Institute, Philadelphia, Pa.). All 3 stained sections were used by the pathologist for scoring purposes. All histological scoring was performed blinded and by an independent board certified veterinary medical pathologist (Julie Engiles, VMD, DACVP; University of Pennsylvania). […]
(§2) Age mated, female, NZM or NZW/LacJ, mice were matured for the study of lupus nephritis for a total of 7 months or 210 days at which time urine was collected for proteinuria detection. Mice with 0.5-1.0 mg/ml of urine protein as determined by an optical density-based total protein precipitation assay and cross-checked for 30-300 mg/dl of protein as determined by a stick assay were considered proteinuria positive and selected for study entry. […] End-stage lupus nephritis was evaluated by histopathology and scored by a board certified pathologist for the assessment of total renal damage in diseased animals using the scoring method described by Smith et al (Smith, Dong et al. 2007). […]

[4] = test system: plasma cells; assay: Spleen plasma cells by flow cytometry in NZM mice
Method: Antibodies used for flow cytometry consisted of anti-mouse CD138-APC (eBioscience, San Diego, Calif.), anti-mouse CD19-FITC (eBioscience, San Diego, Calif.), anti-mouse CD38-PE (eBioscience, San Diego, Calif.) and anti-mouse CD45R/B220-Cyc (eBioscience, San Diego, Calif.), Rat IgG1-APC isotype control (eBioscience, San Diego, Calif.), Rat IgG2a-PE isotype control (eBioscience, San Diego, Calif.). All samples were analyzed using an Accuri C6 Flow Cytometer. Complete media was used for all experiments involving the ex vivo culture of splenocytes for all Elispot experiments. Complete media consisted of RPMI1640 (Cellgro, Manassas, Va.), plus 1% Pen-Strep (Cellgro, Manassas, Va.), 1% L-Gln (Cellgro, Manassas, Va.), 1% NEAA (Cellgro, Manassas, Va.), β-ME (Cellgro, Manassas, Va.), plus 10% FBS (Cellgro, Manassas, Va.).
Washed, RBC-lysed splenocytes were stained for plasma cell markers as previously used in published reports (Neubert, Meister et al. 2008). As used herein the term “plasma cell” will refer to the following immunophenotype definition: Plasma cells were defined as live CD19-negative, CD45R/B220-negative, CD138-positive, CD38-positive events for the MRL/lpr model. A total of 200,000-500,000 events were collected per tube/sample. […]
as §2

[5] = test system: ASCs specific for chromatin; assay: Anti-chromatin antibody secreting B-cell Elispot, NZM spleen; details: NZM mice
Method: as §1

SMILES | anti-smith antigen ANAs ([1]; COMPOUND A treatment) | serum IFNα decrease compared to vehicle ([2]; COMPOUND A 55 mg/kg) [%] | serum IFNα decrease compared to vehicle ([2]; COMPOUND A 100 mg/kg) [%] | lung infiltrates ([3]; COMPOUND A 55 mg/kg and 100 mg/kg, vs dexamethasone and vehicle) | spleen plasma cells decrease compared to vehicle ([4]; COMPOUND A 55 mg/kg) [%] | spleen plasma cells decrease compared to vehicle ([4]; COMPOUND A 100 mg/kg) [%] | ASCs specific for chromatin, decrease ([5]; COMPOUND A 55 mg/kg) [%] | ASCs specific for chromatin, decrease ([5]; COMPOUND A 100 mg/kg) [%] | anti-smith antigen ANAs ([1]; CTX 50 mg/kg once weekly ip) | serum IFNα reduction ([2]; CTX 50 mg/kg once weekly ip) | lung infiltrates ([3]; CTX 50 mg/kg once weekly ip) | levels of spleen plasma cells ([4]; cyclophosphamide 50 mg/kg once weekly ip) | ASCs specific for chromatin, decrease ([5]; CTX 50 mg/kg once weekly ip) [%]
CN1CCN(c2cccc(Nc3nc4c(-c5ccc(S(C)(=O)=O)cc5)cccn4n3)c2)CC1 [COMPOUND A, [8-(4-methanesulfonyl-phenyl)-[1,2,4]triazolo[1,5-a]pyridin-2-yl]-[3-(4-methyl-piperazin-1-yl)-phenyl]-amine] | significantly reduced | 70.2 | 73.2 | prevented lung infiltrates | 57.6 | 52.9 | 97.4 | 100 |  |  |  |  | 
O=P1(N(CCCl)CCCl)NCCCO1 (stereo not shown) [CTX, cyclophosphamide, reference compound] |  |  |  |  |  |  |  |  | significantly reduced | Neither standard of care agent (i.e., CTX or DEX) exhibited a significant reduction | prevented lung infiltrates | the decrease was not significant | 100
